According to patent US11390631B1, “Benzodiazepine derivatives as RSV inhibitors” (priority 2015, dated 2022):
pEC50: −log10 of the molar value. Read-outs that look alike come from different tables or passages of the source.

Tests used:
[1] = test system: Human RSV-A (“Long” strain); assay: RSV-A assay: inhibition of cytopathic effect in Hep-2 cells, ATPlite readout; format: cell-based, Human respiratory syncytial virus (HRSV); details: read-out: Human RSV-A (“Long” strain) EC50
How it was run: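 Cytopathic-effect protection was read as ATP content (ATPlite luminescence) after a 5-day incubation. Setup: Hep-2 cells at 8,000 per well, RSV-A Long at MOI 0.1, 2-fold serial compound dilutions in duplicate. Cytotoxicity (CC50) was measured on an identical uninfected plate run in parallel.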

[2] = Cytotoxicity on parallel plate without virus, ATPlite readout; format: cell-based; details: human, Hep-2 cells (no virus), Hep-2 cells without virus, 5-day incubation
Procedure: Following extensive parameter testing, the final assay is run as follows: Hep-2 cells are seeded into the inner 60 wells of a 96-well plate at 8,000 cells per well in a volume of 50 μL using Growth Media (DMEM without phenol red, 1% L-Glut, 1% Penn/Strep, 1% nonessential amino acids, 10% heat-inactivated FBS). 2-fold serial dilutions of control and test compounds are added to the wells in duplicate in a total volume of 25 μL. Viral stock is then added to the wells at a multiplicity of infection (MOI) of 0.1 in a volume of 25 μL, bringing the total volume of each well to 100 μL. The MOI is calculated using the PFU/mL, or TCID50 if unavailable. Each 96-well plate has a control column of 6 wells with cells and virus but no compound (negative control, max CPE), a column with cells but no compound or virus (positive control, minimum CPE), and a column with no cells or virus or compound (background plate/reagent control). The control wells with cells but no virus are given an additional 25 uL of growth media containing an equal quantity of sucrose as those wells receiving the viral stock in order to keep consistent in media and volume conditions. The outer wells of the plate are filled with 125 μL of moat media (DMEM, 1% Penn/Strep) to act as a thermal and evaporative moat around the test wells. Following a 5-day incubation period, the plates are read using ATPlite (50 uL added per well), which quantifies the amount of ATP (a measure of cell health) present in each well. Assay plates are read using the Envision luminometer. In parallel, cytotoxicity is examined on an additional 96-well plate treated in an identical manner, but substituting the 25 μL of viral stock for 25 μL of growth media. […] EC50 ranges are as follows: A<0.4 μM; B 0.4-0.8 μM; C>0.8 μM and CC50 ranges are as follows: A>50 μM; B 10-50 μM; C<10 μM.

[3] = human respiratory syncytial virus, HEp-2, 120 h

SMILES	pEC50 [1, 3]	CC50 at 5 days [2] [nM]	pEC50 ([1]; Hep-2 cells, MOI 0.1, 5-day incubation, ATPlite)
O=C1Nc2ccccc2C(c2ccccc2)=NC1Nc1nnc([C@H]2COCCN2)o1 (stereo partly shown) [Example 49]	< 6.10	> 50000	
O=C1Nc2ccccc2C(c2ccccc2)=NC1Nc1nnc(-c2ccc(OC(F)(F)F)cc2)o1 (stereo not shown) [Example 30]	< 6.10	> 50000	
Cn1cnc(-c2nnc(NC3N=C(c4ccccc4)c4ccccc4NC3=O)o2)c1 (stereo not shown) [Example 68]	< 6.10	> 50000	
CC(=O)N1CCC(c2nnc(NC3N=C(c4ccccc4)c4ccccc4NC3=O)o2)CC1 (stereo not shown) [Example 47]	< 6.10	> 50000	
N#Cc1ccc(-c2nnc(NC3N=C(c4ccccc4)c4ccccc4NC3=O)o2)cc1 (stereo not shown) [Example 12]	6.10 to 6.40	> 50000	
O=C1Nc2ccccc2C(c2ccccc2)=NC1Nc1nnc(-c2ccc(Cl)cc2)o1 (stereo not shown) [Example 13]	> 6.40	> 50000	
N#Cc1ccc(-c2nnc(NC3N=C(c4ccccc4)c4ccccc4NC3=O)o2)cc1F (stereo not shown) [Example 33]	< 6.10	> 50000	
O=C1Nc2ccccc2C(c2ccccc2)=NC1Nc1nnc(-c2cc[nH]c(=O)c2)o1 (stereo not shown) [Example 40]	< 6.10	> 50000	
O=C1Nc2ccccc2C(c2ccccc2)=NC1Nc1nnc(Cc2ccccc2)o1 (stereo not shown) [Example 22]	< 6.10	> 50000	
CN1CCc2nc(-c3nnc(NC4N=C(c5ccccc5)c5ccccc5NC4=O)o3)sc2C1 (stereo not shown) [Example 44]	< 6.10	> 50000	
O=C1Nc2ccccc2C(c2ccccc2)=NC1Nc1nnc(-c2ccnc(F)c2)o1 (stereo not shown) [Example 55]	> 6.40	> 50000	
O=C1Nc2ccccc2C(c2ccccc2)=NC1Nc1nnc(-c2cccc(F)c2)o1 (stereo not shown) [Example 3]	< 6.10	> 50000	
O=C1Nc2ccccc2C(c2ccccc2)=NC1Nc1nnc(-c2cncnc2)o1 (stereo not shown) [Example 60]	< 6.10	> 50000	
O=C1Nc2ccccc2C(c2ccccc2)=NC1Nc1nc(-c2ccccc2)ns1 (stereo not shown) [Example 87]	< 6.10	10000 to 50000	
O=C1Nc2ccccc2C(c2ccccc2)=NC1Nc1nnc(-c2nccs2)o1 (stereo not shown) [Example 69]	< 6.10	> 50000	
N#Cc1cc(-c2nnc(NC3N=C(c4ccccc4)c4ccccc4NC3=O)o2)ccc1F (stereo not shown) [Example 32]	6.10 to 6.40	> 50000	
Cc1ccc(-c2nnc(NC3N=C(c4ccccc4)c4ccccc4NC3=O)o2)s1 (stereo not shown) [Example 19]	< 6.10	> 50000	
O=C1Nc2ccccc2C(c2ccccc2)=NC1Nc1nnc(-c2ccccc2F)o1 (stereo not shown) [Example 6]	< 6.10	> 50000	
O=C1Nc2ccccc2C(c2ccccc2)=NC1Nc1cccn(Cc2ccccc2)c1=O (stereo not shown) [Example 97]	< 6.10	> 50000	
N#Cc1cccc(-c2nnc(NC3N=C(c4ccccc4)c4ccccc4NC3=O)o2)c1 (stereo not shown) [Example 35]	< 6.10	> 50000	

SMILES	pEC50 [1, 3]	CC50 at 5 days [2] [nM]	pEC50 ([1]; Hep-2 cells, MOI 0.1, 5-day incubation, ATPlite)
O=C1Nc2ccccc2C(c2ccccc2)=NC1Nc1ncc(-c2ccccc2)o1 (stereo not shown) [Example 84]	< 6.10	10000 to 50000	
Cc1cccc(-c2nnc(NC3N=C(c4ccccc4)c4ccccc4NC3=O)o2)n1 (stereo not shown) [Example 26]	< 6.10	> 50000	
O=C1Nc2ccccc2C(c2ccccc2)=NC1Nc1nnc(-c2cnco2)o1 (stereo not shown) [Example 75]	< 6.10	> 50000	
O=C1Nc2ccccc2C(c2ccccc2)=NC1Nc1nnc(-c2ccc3ccccc3c2)o1 (stereo not shown) [Example 16]	6.10 to 6.40	> 50000	
O=C1Nc2ccccc2C(c2ccccc2)=NC1Nc1nc2ccccc2s1 (stereo not shown) [Example 101]	< 6.10	10000 to 50000	
O=C1Nc2ccccc2C(c2ccccc2)=NC1Nc1nnc(-c2ccc(-n3cccn3)cc2)o1 (stereo not shown) [Example 36]	6.10 to 6.40	10000 to 50000	
O=C1Nc2ccccc2C(c2ccccc2)=NC1Nc1nnc(-c2ccncn2)o1 (stereo not shown) [Example 63]	< 6.10	> 50000	
N#Cc1ccc(-c2nnc(NC3N=C(c4ccccc4)c4ccccc4NC3=O)s2)cc1 (stereo not shown) [Example 82]	6.10 to 6.40	> 50000	
COc1cc(-c2nnc(NC3N=C(c4ccccc4)c4ccccc4NC3=O)o2)ccc1F (stereo not shown) [Example 14]	> 6.40	10000 to 50000	
O=C1Nc2ccccc2C(c2ccccc2)=N[C@H]1Nc1nnc(-c2ccco2)o1 [Example 10b]	< 6.10	< 10000	
COCc1ccc(-c2nnc(NC3N=C(c4ccccc4)c4ccccc4NC3=O)o2)o1 (stereo not shown) [Example 72]	< 6.10	> 50000	
Cc1nnc(NC2N=C(c3ccccc3)c3ccccc3NC2=O)o1 (stereo not shown) [Example 18]	< 6.10	> 50000	
CN(C)Cc1ccc(-c2nnc(NC3N=C(c4ccccc4)c4ccccc4NC3=O)o2)o1 (stereo not shown) [Example 73]	< 6.10	> 50000	
O=C1Nc2ccccc2C(c2ccccc2)=NC1Nc1nc2ccccc2o1 (stereo not shown) [Example 100]	< 6.10	10000 to 50000	
O=C1Nc2ccccc2C(c2ccccc2)=N[C@@H]1Nc1nnc(-c2ccco2)o1 [Example 10a]	6.10 to 6.40	> 50000	
O=C1Nc2ccccc2C(c2ccccc2)=NC1Nc1nnc(-c2ccccn2)o1 (stereo not shown) [Example 11]	6.10 to 6.40	> 50000	
O=C1Nc2ccccc2C(c2ccccc2)=NC1Nc1nnc(-c2ccccc2)s1 (stereo not shown) [Example 81]	< 6.10	> 50000	
O=C1Nc2ccccc2C(c2ccccc2)=NC1Nc1nnc(-c2cccc3ccccc23)o1 (stereo not shown) [Example 17]	< 6.10	> 50000	
O=C1Nc2ccccc2C(c2ccccc2)=NC1Nc1nnc(-c2cc3cccnc3s2)o1 (stereo not shown) [Example 43]	< 6.10	> 50000	
O=C1Nc2ccccc2C(c2ccccc2)=NC1Nc1nnc(-c2ncccn2)o1 (stereo not shown) [Example 59]	< 6.10	> 50000	

SMILES	pEC50 [1, 3]	CC50 at 5 days [2] [nM]	pEC50 ([1]; Hep-2 cells, MOI 0.1, 5-day incubation, ATPlite)
O=C1Nc2ccccc2C(c2ccccc2)=NC1Nc1nnc(-c2ccc(C(F)(F)F)cn2)o1 (stereo not shown) [Example 25]	< 6.10	> 50000	
O=C1Nc2ccccc2C(c2ccccc2)=NC1Nc1nnc(-c2ccc(F)cn2)o1 (stereo not shown) [Example 23]	< 6.10	> 50000	
Cn1cc(-c2nnc(NC3N=C(c4ccccc4)c4ccccc4NC3=O)o2)cn1 (stereo not shown) [Example 66]	6.10 to 6.40	> 50000	
O=C1Nc2ccccc2C(c2ccccc2)=NC1Nc1nnc(-c2cscn2)o1 (stereo not shown) [Example 77]	6.10 to 6.40	> 50000	
COc1cccc(-c2nnc(NC3N=C(c4ccccc4)c4ccccc4NC3=O)o2)n1 (stereo not shown) [Example 52]	> 6.40	> 50000	
O=C1Nc2ccccc2C(c2ccccc2)=NC1Nc1nnc([C@@H]2COCCN2)o1 (stereo partly shown) [Example 48]	< 6.10	> 50000	
O=C1Nc2ccccc2C(c2ccccc2)=NC1Nc1nc2ccc(F)cc2o1 (stereo not shown) [Example 103]	< 6.10	10000 to 50000	
O=C1Nc2ccccc2C(c2ccccc2)=NC1Nc1nnc(-c2ccc(F)cc2)s1 (stereo not shown) [Example 80]	< 6.10	> 50000	
CS(=O)(=O)c1ccc(-c2nnc(NC3N=C(c4ccccc4)c4ccccc4NC3=O)o2)nc1 (stereo not shown) [Example 107]	< 6.10		
O=C1Nc2ccccc2C(c2ccccc2)=N[C@@H]1Nc1nnc(-c2ccccc2N2CCOCC2)o1 [Example 125a]	> 6.40		
O=C1Nc2ccccc2C(c2ccccc2)=N[C@@H]1Nc1nnc(-c2cn(-c3ccc(C(F)(F)F)cn3)nc2N2CCOCC2)o1 [Example 440]	6.10 to 6.40		
COCCNc1sc(C)nc1-c1nnc(N[C@H]2N=C(c3ccccc3)c3ccccc3NC2=O)o1 [Example 335]	> 6.40		
O=C1Nc2ccccc2C(c2ccccc2)=N[C@@H]1Nc1nnc(-c2cn(-c3ccc(C(F)(F)F)nc3)nc2N2CCOCC2)o1 [Example 444]			> 6.40
O=C1Nc2ccccc2C(c2ccccc2)=NC1Nc1nnc([C@@H]2CCCN2C2CCNCC2)o1 (stereo partly shown) [Example 227]	< 6.10		
O=C1Nc2ccccc2C(c2ccccc2)=NC1Nc1nnc(-c2ccc(-n3cncn3)cc2)o1 (stereo not shown) [Example 273]	6.10 to 6.40		
O=C1Nc2ccccc2C(c2ccccc2)=NC1Nc1nnc(-c2ccc(-n3cnnc3)cc2)o1 (stereo not shown) [Example 233]	< 6.10		
CC1(C)C[C@@H]1c1nnc(NC2N=C(c3ccccc3)c3ccccc3NC2=O)o1 (stereo partly shown) [Example 205]	< 6.10		
Cc1cc(-c2nnc(NC3N=C(c4ccccc4)c4ccccc4NC3=O)o2)ccc1-n1cncn1 (stereo not shown) [Example 217]	6.10 to 6.40		
